Here are results for five compounds from patent US10195178B2, “GPR40 agonists in anti-diabetic drug combinations” (Janssen Pharmaceutica NV, priority 2016, dated 2019).

Each structure is given as a SMILES string. “And” between values parts separate entries of the source, which are not always exact repeats. Equal values may be shown once.

One test has as its system SD rats. Description: Oral Glucose Tolerance Test: Canagliflozin Combination with GPR40 Agonist. The following applies: SD rat OGTT; for Blood glucose 0 min / Blood glucose 30 min / Blood glucose 60 min / Blood glucose 120 min / Blood glucose AUC / Blood glucose AUC % of Vehicle: single oral dose 60 min before glucose 2 g/kg; for Blood glucose AUC / Blood glucose AUC % of Vehicle: AUC 0-120 min. Type of test: in vivo. As to the method:
We have evaluated the blood glucose (BG) lowering effect of canagliflozin (Cana) combined with a GPR40 agonist Cpd 2 in SD rat studies. Overnight fasted SD rats received either a single treatment of Cana or Cpd 2 or a combination of both. An oral glucose tolerance test (OGTT) was followed at 60 min post compound administration. […] The two-sided Z Test and Delta method were applied to statistically determine the treatment additivity of combinations using blood glucose AUC values. Results indicated the treatments were additive in the combinations of Canagliflozin at 1 or 3 mg/kg and Cpd 2 at 0.3 or 1 mg/kg.
• A. The formulation of Canagliflozin was prepared by directly adding the required amount of 0.5% HPMC to the compound and stirring overnight. • B. The formulation of Cpd 2 was prepared following steps listed below: • a. One equivalent (amount of compound/compound MW) of 1N NaOH was added to dry compound to enhance water solubility (due to compound itself is a carboxylic acid). • b. The required volume of 0.5% HPMC was then added; • c. The compound was vortexed and sonicated (without heat) for a minimum of 10 minutes. • d. The compound was then allowed to stir overnight. • C. For the formulation of combination of Canagliflozin (Cana) and Cpd 2: • a. First, a formulation of double concentrations of each compound was prepared.
• b. Right before dosing, the double-concentrated formulation of Cpd 2 was mixed with an equal volume of the double-concentrated formulation of Canagliflozin, such that each compound was as 1× concentration. • D. The dosing volume for all the experiments was 10 mL/kg Experimental Design
Male SD rats (225-245 g of body weight, purchased from Charles River) were used in this study. SD rats were housed 2 per cage in a temperature-controlled room with 12-hour light/dark cycle (6 am-6 pm lights on). They are allowed ad libitum access to water and fed with Purina 5K75 (LabDiet, St. Louis, Mo.).
SD rats were fasted overnight. In the morning of the next day, these rats were grouped into the following 12 groups based on their fasted blood glucose levels determined by a glucometer (LifeScan, New Brunswick, N.J.) and body weight.
At −60 minutes BG values were collected via tail bleeding. Next, rats were dosed orally with vehicle or compounds in vehicle. Then, at 0 minutes, rats were bled via tail vein to determine BG levels and dosed orally with glucose (2 g/kg; 50% glucose, 4 mL/kg). Blood samples were collected at 30, 60, and 120 minutes after oral glucose administration for BG determination.
Statistical analysis were performed using the program Prism (Graphpad, Monrovia, Calif.) with either a repeated measures 1-way ANOVA (glucose and insulin curves with Tukey's post-test) or a one-way ANOVA and Tukey's multiple comparison test (AUC, delta AUC and percent vehicle). All data are presented as the mean±standard error of the mean (SEM).
The two-sided Z Test and Delta method was applied to statistically determine the treatment additivity of combinations.

Another test concerns the target human GPR40 (Homo sapiens (Human), UniProt O14842). Description: GPR40 Calcium Flux Assay. The following applies: transfected HEK293 cells stably expressing human GPR40; mean data; read-out: hGPR40 Ca2+ Assay EC50. Type of test: cell-based. As to the method: Compounds were tested in a calcium flux assay using transfected HEK293 cells stably expressing either human GPR40 or rat GPR40. Human GPR40 expressing cells were cultured in DMEM-High Glucose media supplemented with 10% fetal bovine serum, 1×L-Glutamine, 1×Penicillin/Streptomycin and 500 μg/mL G418. Rat GPR40 expressing cells were cultured in DMEM-High Glucose media supplemented with 10% fetal bovine serum and 1 μg/mL puromycin. Cells were plated into poly-D-lysine coated 384-well plates and cultured overnight in a 37° C. humidified tissue culture incubator under 5% CO2/[…] atmosphere. On the day of the experiment, the culture media was replaced with assay buffer (HBSS, 20 mM HEPES, 0.1% BSA) and the cells incubated at 37° C. for 1 h. Calcium-sensitive fluorescent dye (Fluo 8 No-Wash Calcium Dye, ABD Bioquest) was then added and the cells incubated for another 30 min at 37° C. followed by 15 min at room temperature while protected from the light. The cell plate and a plate of diluted compounds of Formula (I) were loaded into a fluorescent plate reader that added compounds onto the cells while measuring the fluorescence intensity of each well. The plate reader recorded fluorescence intensity at 1 second intervals for 8 min and provided the data for analysis in an Excel format. EC50 values were calculated using Prism (GraphPad) software.

Chain of human GPR40 (O14842 whole entry): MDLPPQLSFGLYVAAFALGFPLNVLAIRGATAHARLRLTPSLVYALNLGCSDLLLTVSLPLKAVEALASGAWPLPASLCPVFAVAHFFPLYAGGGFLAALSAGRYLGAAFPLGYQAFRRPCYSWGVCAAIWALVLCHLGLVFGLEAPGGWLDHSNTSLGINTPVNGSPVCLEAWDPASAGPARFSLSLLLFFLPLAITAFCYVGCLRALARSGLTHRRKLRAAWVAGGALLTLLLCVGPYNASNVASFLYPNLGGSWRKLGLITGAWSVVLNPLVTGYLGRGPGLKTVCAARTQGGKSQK

On to `Cc1ccc([C@@H]2O[C@H](CO)[C@@H](O)[C@H](O)[C@H]2O)cc1Cc1ccc(-c2ccc(F)cc2)s1` [Cana, canagliflozin], for which the “Blood glucose lowering during OGTT (in words)” value in the test on SD rats (10 mg/kg) is reported as “markedly lowering blood glucose”. In the test on SD rats (1 mpk), the “Blood glucose 0 min” value is 76.9 ± 2.3 mg/dL, the “Blood glucose 30 min” value came to 162.8 ± 6.5 mg/dL, the “Blood glucose 60 min” value was 177.8 ± 4.0 mg/dL and the “Blood glucose 120 min” value is 135.5 ± 8.2 mg/dL. Besides, in the test on SD rats (1 mpk), the “Blood glucose AUC” value is 18,099 ± 551 mg/dL/120 min and the “Blood glucose AUC % of Vehicle” value is recorded as 95.4 ± 2.9%. In the test with SD rats (3 mpk), the “Blood glucose 0 min” value is 85.1 ± 3.0 mg/dL, the “Blood glucose 30 min” value is 140.5 ± 5.1 mg/dL, the “Blood glucose 60 min” value is 156.4 ± 4.0 mg/dL and the “Blood glucose 120 min” value is 125.1 ± 9.7 mg/dL. Further, in the test with SD rats (3 mpk), the “Blood glucose AUC” value was 16,204 ± 412 mg/dL/120 min and the “Blood glucose AUC % of Vehicle” value came out at 85.4 ± 2.2%. Also, in the test on SD rats (10 mpk), the “Blood glucose 0 min” value came out at 73.6 ± 4.4 mg/dL, the “Blood glucose 30 min” value was 91.9 ± 6.4 mg/dL, the “Blood glucose 60 min” value amounted to 103.5 ± 5.4 mg/dL and the “Blood glucose 120 min” value was 95.1 ± 3.7 mg/dL. In addition, in the test with SD rats (10 mpk), the “Blood glucose AUC” value is 11,400 ± 459 mg/dL/120 min and the “Blood glucose AUC % of Vehicle” value was 60.1 ± 2.4%.
As to `CC#C[C@@H](CC(=O)O)c1ccc(OCc2ccc3scc(-c4ccccc4C)c3c2)cc1` [Cpd 2, (3S)-3-[4-[[3-(2-Methylphenyl)benzo[b]thiophen-5-yl]methoxy]phenyl]hex-4-ynoic acid], in the test on SD rats (0.3 mpk), the “Blood glucose 0 min” value stood at 86.1 ± 4.2 mg/dL, the “Blood glucose 30 min” value was determined as 149.0 ± 4.3 mg/dL, the “Blood glucose 60 min” value came to 153.1 ± 4.2 mg/dL and the “Blood glucose 120 min” value turned out to be 103.3 ± 4.0 mg/dL. For the same compound, in the test on SD rats (0.3 mpk), the “Blood glucose AUC” value was 15,750 ± 244 mg/dL/120 min and the “Blood glucose AUC % of Vehicle” value is listed as 83.0 ± 1.3%. In the test on SD rats (1 mpk), the “Blood glucose 0 min” value was 76.1 ± 5.0 mg/dL, the “Blood glucose 30 min” value is 132.3 ± 6.4 mg/dL, the “Blood glucose 60 min” value is 139.6 ± 7.3 mg/dL and the “Blood glucose 120 min” value came out at 102.4 ± 4.8 mg/dL. Further, in the test with SD rats (1 mpk), the “Blood glucose AUC” value is given as 14,464 ± 554 mg/dL/120 min and the “Blood glucose AUC % of Vehicle” value came out at 76.2 ± 2.9%.
A word on the EC50: it is the midpoint of the concentration-response curve. Take `Cc1ccccc1-c1csc2ccc(COc3ccc([C@]4(CC(=O)O)C[C@@H](O)C4)cc3)cc12` [Cpd 31, 2-((1r,3r)-3-Hydroxy-1-(4-((3-(2-methylphenyl)benzo[b]thiophen-5-yl)methoxy)phenyl)cyclobutyl)acetic acid]: at human GPR40, the EC50 is 48 nM.
For the compound `CC#C[C@@H](CC(=O)O)c1ccc(OCc2ccc3scc(-c4ccc(OCCOC)cc4C)c3c2)nc1` [Cpd 77, (3R)-3-(6-((3-(4-(2-Methoxyethoxy)-2-methylphenyl)benzo[b]thiophen-5-yl)methoxy)pyridin-3-yl)hex-4-ynoic acid], the EC50 at human GPR40 is 16 nM and 6 nM and 5 nM.
As to `CC#CC(CC(=O)O)c1ccc(OCc2ccc3scc(-c4ccccc4C)c3c2)cc1` (stereo not shown) [Cpd 97, 3-(4-((3-(2-Methylphenyl)benzo[b]thiophen-5-yl)methoxy)phenyl)hex-4-ynoic acid], the EC50 at human GPR40 was 4 nM.
